# Results reported in patent publication US20240360146A1, “BRUTON'S TYROSINE KINASE AND MUTANT DEGRADER, COMPOSITION AND APPLICATION THEREOF” (HANGZHOU HEALZEN THERAPEUTICS CO., LTD., priority 2021, published 2024).
# Target: T1, BTK (Homo sapiens, UniProt Q06187)
# T1 construct: endogenous in cells; host or cells: Mino cells
# Test: BTK degradation activity test in Mino cells
# Assay type: cell-based
# Conditions: 16 h incubation, Western blot or Elisa
# Summary of the method: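 Mino cells treated with a concentration series of compound for 16 h, then lysed; total protein by BCA. BTK quantified by Western blot or ELISA, degradation rate calculated against blank control, and DC50 fitted from the degradation curve.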
# T1 sequence (Q06187 whole entry): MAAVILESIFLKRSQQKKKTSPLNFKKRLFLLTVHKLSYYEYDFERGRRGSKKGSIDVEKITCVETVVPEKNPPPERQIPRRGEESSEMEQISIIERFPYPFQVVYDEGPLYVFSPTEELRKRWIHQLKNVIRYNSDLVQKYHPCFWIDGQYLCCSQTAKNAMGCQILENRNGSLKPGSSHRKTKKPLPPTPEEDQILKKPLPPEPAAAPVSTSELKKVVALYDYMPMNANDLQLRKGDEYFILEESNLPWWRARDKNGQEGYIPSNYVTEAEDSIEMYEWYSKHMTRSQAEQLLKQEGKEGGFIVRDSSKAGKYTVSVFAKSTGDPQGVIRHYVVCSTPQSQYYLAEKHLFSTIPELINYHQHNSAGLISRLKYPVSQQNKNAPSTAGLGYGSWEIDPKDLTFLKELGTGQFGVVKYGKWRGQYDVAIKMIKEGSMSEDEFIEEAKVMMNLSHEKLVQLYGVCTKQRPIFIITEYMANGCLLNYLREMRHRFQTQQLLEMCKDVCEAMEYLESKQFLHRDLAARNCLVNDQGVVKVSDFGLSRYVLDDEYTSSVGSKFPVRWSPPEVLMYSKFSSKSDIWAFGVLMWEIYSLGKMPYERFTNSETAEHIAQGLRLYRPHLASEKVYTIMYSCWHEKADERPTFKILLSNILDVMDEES
row,SMILES,DC50 [nM]
1,"CN1CCN([C@@H]2CCCN(c3nnc(C(N)=O)c(Nc4ccc(N5CCN(CC6CCN(c7ccc(NC8CCC(=O)NC8=O)nc7)C6)CC5)c(F)c4)n3)C2)C1=O (stereo partly drawn) [Compound 200, 5-((4-(4-((1-(6-((2,6-dioxopiperidin-3-yl)amino)pyridin-3-yl)pyrrolidin-3-yl)methyl)piperazin-1-yl)-3-fluorophenyl)amino)-3-((R)-3-(3-methyl-2-oxoimidazolidin-1-yl)piperidin-1-yl)-1,2,4-triazin-6-carboxamide]",< 1
2,"CN1CCN([C@@H]2CCCN(c3nnc(C(N)=O)c(Nc4ccc(N5CCN(CC6CCN(c7ccc(NC8CCC(=O)NC8=O)cn7)C6)CC5)c(F)c4)n3)C2)C1=O (stereo partly drawn) [Compound 201, 5-((4-(4-((1-(5-((2,6-dioxopiperidin-3-yl)amino)pyridin-2-yl)pyrrolidin-3-yl)methyl)piperazin-1-yl)-3-fluorophenyl)amino)-3-((R)-3-(3-methyl-2-oxoimidazolidin-1-yl)piperidin-1-yl)-1,2,4-triazin-6-carboxamide]",< 1
3,"Cc1cc(N2CCC(CN3CCN(c4ccc(Nc5nc(N6CCC[C@@H](N7CCN(C)C7=O)C6)nnc5C(N)=O)cc4F)CC3)C2)ccc1NC1CCC(=O)NC1=O (stereo partly drawn) [Compound 206, 5-((4-(4-((1-(4-((2,6-dioxopiperidin-3-yl)amino)-3-methylphenyl)pyrrolidin-3-yl)methyl)piperazin-1-yl)-3-fluorophenyl)amino)-3-((R)-3-(3-methyl-2-oxoimidazolidin-1-yl)piperidin-1-yl)-1,2,4-triazin-6-carboxamide]",< 1
4,"CN1CCN([C@@H]2CCCN(c3nnc(C(N)=O)c(Nc4ccc(N5CCN(CC6CCN(c7ccc(NC8CCC(=O)NC8=O)c8c7OCCO8)CC6)CC5)c(F)c4)n3)C2)C1=O (stereo partly drawn) [Compound 211, 5-((4-(4-((1-(8-((2,6-dioxopiperidin-3-yl)amino)-2,3-dihydrobenzo[b][1,4]dioxan-5-yl)piperidin-4-yl)methyl)piperazin-1-yl)-3-fluorophenyl)amino)-3-((R)-3-(3-methyl-2-oxoimidazolidin-1-yl)piperidin-1-yl)-1,2,4-triazin-6-carboxamide]",< 1
5,"CN1CCN([C@@H]2CCCN(c3nnc(C(N)=O)c(Nc4ccc(N5CCN(CC6CCN(c7cccc8c(C9CCC(=O)NC9=O)nn(C)c78)CC6)CC5)c(F)c4)n3)C2)C1=O (stereo partly drawn) [Compound 217, 5-((4-(4-((1-(3-(2,6-dioxopiperidin-3-yl)-1-methyl-H-indazol-7-yl)piperidin-4-yl)methyl)piperazin-1-yl)-3-fluorophenyl)amino)-3-((R)-3-(3-methyl-2-oxoimidazolidin-1-yl)piperidin-1-yl)-1,2,4-triazin-6-carboxamide]",< 1
6,"CN1CCN([C@@H]2CCCN(c3nnc(C(N)=O)c(Nc4ccc(N5CCN(CC6CCN(c7ccc8c9c(oc8c7)C(=O)N(C7CCC(=O)NC7=O)C9)C6)CC5)c(F)c4)n3)C2)C1=O (stereo partly drawn) [Compound 221, 5-((4-(4-((1-(2-(2,6-dioxopiperidin-3-yl)-3-oxo-2,3-dihydro-H-benzofuro[2,3-c]pyrrol-6-yl)pyrrolidin-3-yl)methyl)piperazin-1-yl)-3-fluorophenyl)amino)-3-((R)-3-(3-methyl-2-oxoimidazolidin-1-yl)piperidin-1-yl)-1,2,4-triazin-6-carboxamide]",< 1
7,"CN1CCN([C@@H]2CCCN(c3nnc(C(N)=O)c(Nc4ccc(N5CCN(C#Cc6ccc(C(=O)NC7CCC(=O)NC7=O)c(F)c6)CC5)c(F)c4)n3)C2)C1=O (stereo partly drawn) [Compound 225, 5-((4-(4-((4-((2,6-dioxopiperidin-3-yl)carbamoyl)-3-fluorophenyl)ethynyl)piperazin-1-yl)-3-fluorophenyl)amino)-3-((R)-3-(3-methyl-2-oxoimidazolidin-1-yl)piperidin-1-yl)-1,2,4-triazin-6-carboxamide]",< 1
8,"CN1CCN([C@@H]2CCCN(c3nnc(C(N)=O)c(Nc4ccc(N5CCN(CC#Cc6ccc(C(=O)NC7CCC(=O)NC7=O)s6)CC5)c(F)c4)n3)C2)C1=O (stereo partly drawn) [Compound 230, 5-((4-(4-(3-(5-((2,6-dioxopiperidin-3-yl)carbamoyl)thiophen-2-yl)propan-2-yn-1-yl)piperazin-1-yl)-3-fluorophenyl)amino)-3-((R)-3-(3-methyl-2-oxoimidazolidin-1-yl)piperidin-1-yl)-1,2,4-triazin-6-carboxamide]",< 1

# Next, values leading:
row,DC50 [nM],SMILES
1,< 1,"CN1CCN([C@@H]2CCCN(c3nnc(C(N)=O)c(Nc4ccc(N5CCN(CC6CCN(c7ccc(NC8CCC(=O)NC8=O)c(F)c7)C6)CC5)c(F)c4)n3)C2)C1=O (stereo partly drawn) [Compound 204, 5-((4-(4-((1-(4-((2,6-dioxopiperidin-3-yl)amino)-3-fluorophenyl)pyrrolidin-3-yl)methyl)piperazin-1-yl)-3-fluorophenyl)amino)-3-((R)-3-(3-methyl-2-oxoimidazolidin-1-yl)piperidin-1-yl)-1,2,4-triazin-6-carboxamide]"
2,< 1,"CN1CCN([C@@H]2CCCN(c3nnc(C(N)=O)c(Nc4ccc(N5CCN(CC6CCN(c7ccc(NC8CCC(=O)NC8=O)c8c7OCO8)C6)CC5)c(F)c4)n3)C2)C1=O (stereo partly drawn) [Compound 208, 5-((4-(4-((1-(7-((2,6-dioxopiperidin-3-yl)amino)benzo[d][1,3]dioxacyclopent-4-yl)pyrrolidin-3-yl)methyl)piperazin-1-yl)-3-fluorophenyl)amino)-3-((R)-3-(3-methyl-2-oxoimidazolidin-1-yl)piperidin-1-yl)-1,2,4-triazin-6-carboxamide]"
3,< 1,"CN1CCN([C@@H]2CCCN(c3nnc(C(N)=O)c(Nc4ccc(N5CCN(CC6CCN(c7ccc8c(C9CCC(=O)NC9=O)nn(C)c8c7)C6)CC5)c(F)c4)n3)C2)C1=O (stereo partly drawn) [Compound 212, 5-((4-(4-((1-(3-(2,6-dioxopiperidin-3-yl)-1-methyl-1H-indazol-6-yl)pyrrolidin-3-yl)methyl)piperazin-1-yl)-3-fluorophenyl)amino)-3-((R)-3-(3-methyl-2-oxoimidazolidin-1-yl)piperidin-1-yl)-1,2,4-triazin-6-carboxamide]"
4,< 1,"CN1CCN([C@@H]2CCCN(c3nnc(C(N)=O)c(Nc4ccc(N5CCN(CC6CCN(c7ccc8c(C9CCC(=O)NC9=O)nn(C)c8n7)C6)CC5)c(F)c4)n3)C2)C1=O (stereo partly drawn) [Compound 214, 5-((4-(4-((1-(3-(2,6-dioxopiperidin-3-yl)-1-methyl-H-pyrazolo[3,4-b]pyridin-6-yl)pyrrolidin-3-yl)methyl)piperazin-1-yl)-3-fluorophenyl)amino)-3-((R)-3-(3-methyl-2-oxoimidazolidin-1-yl)piperidin-1-yl)-1,2,4-triazin-6-carboxamide]"
5,< 1,"CN1CCN([C@@H]2CCCN(c3nnc(C(N)=O)c(Nc4ccc(N5CCN(CC6CCN(c7ccc8c(C9CCC(=O)NC9=O)nn(C)c8n7)CC6)CC5)c(F)c4)n3)C2)C1=O (stereo partly drawn) [Compound 215, 5-((4-(4-((1-(3-(2,6-dioxopiperidin-3-yl)-1-methyl-1H-pyrazolyl[3,4-b]pyridin-6-yl)piperidin-4-yl)methyl)piperazin-1-yl)-3-fluorophenyl)amino)-3-((R)-3-(3-methyl-2-oxoimidazolidin-1-yl)piperidin-1-yl)-1,2,4-triazin-6-carboxamide]"
6,< 1,"CN1CCN([C@@H]2CCCN(c3nnc(C(N)=O)c(Nc4ccc(N5CCN(CC6CCN(c7cccc8c(C9CCC(=O)NC9=O)nn(C)c78)C6)CC5)c(F)c4)n3)C2)C1=O (stereo partly drawn) [Compound 216, 5-((4-(4-((1-(3-(2,6-dioxopiperidin-3-yl)-1-methyl-1H-indazol-7-yl)pyrrolidin-3-yl)methyl)piperazin-1-yl)-3-fluorophenyl)amino)-3-((R)-3-(3-methyl-2-oxoimidazolidin-1-yl)piperidin-1-yl)-1,2,4-triazin-6-carboxamide]"
7,< 1,"CN1CCN([C@@H]2CCCN(c3nnc(C(N)=O)c(Nc4ccc(N5CCN(CC6CCN(c7ccc8c9c([nH]c8c7)C(=O)N(C7CCC(=O)NC7=O)C9)C6)CC5)c(F)c4)n3)C2)C1=O (stereo partly drawn) [Compound 220, 5-((4-(4-((1-(2-(2,6-dioxopiperidin-3-yl)-3-oxo-1,2,3,4-tetrahydropyrrolo[3,4-b]indol-6-yl)pyrrolidin-3-yl)methyl)piperazin-1-yl)-3-fluorophenyl)amino)-3-((R)-3-(3-methyl-2-oxoimidazolidin-1-yl)piperidin-1-yl)-1,2,4-triazin-6-carboxamide]"
8,< 1,"Cc1cc(C#CCN2CCN(c3ccc(Nc4nc(N5CCC[C@@H](N6CCN(C)C6=O)C5)nnc4C(N)=O)cc3F)CC2)ccc1C(=O)NC1CCC(=O)NC1=O (stereo partly drawn) [Compound 226, 5-((4-(4-(3-(4-((2,6-dioxopiperidin-3-yl)carbamoyl)-3-methylphenyl)propan-2-yn-1-yl)piperazin-1-yl)-3-fluorophenyl)amino)-3-((R)-3-(3-methyl-2-oxoimidazolidin-1-yl)piperidin-1-yl)-1,2,4-triazin-6-carboxamide]"
9,< 1,"CN1CCN([C@@H]2CCCN(c3nnc(C(N)=O)c(Nc4ccc(N5CCN(CC#Cc6ccc(NC7CCC(=O)NC7=O)c(F)c6)CC5)c(F)c4)n3)C2)C1=O (stereo partly drawn) [Compound 228, 5-((4-(4-(3-(4-((2,6-dioxopiperidin-3-yl)amino)-3-fluorophenyl)propan-2-yn-1-yl)piperazin-1-yl)-3-fluorophenyl)amino)-3-((R)-3-(3-methyl-2-oxoimidazolidin-1-yl)piperidin-1-yl)-1,2,4-triazin-6-carboxamide]"
10,< 1,"CN1CCN([C@@H]2CCCN(c3nnc(C(N)=O)c(Nc4ccc(N5CCN(CC#Cc6ccc(NC7CCC(=O)NC7=O)c7ocnc67)CC5)c(F)c4)n3)C2)C1=O (stereo partly drawn) [Compound 229, 5-((4-(4-(3-(7-((2,6-dioxopiperidin-3-yl)amino)benzo[d]oxazol-4-yl)propan-2-yn-1-yl)piperazin-1-yl)-3-fluorophenyl)amino)-3-((R)-3-(3-methyl-2-oxoimidazolidin-1-yl)piperidin-1-yl)-1,2,4-triazin-6-carboxamide]"
